PubChem BioAssay (NCI)
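Five concentrations, 48 hours, 96-well plates. TGI denotes the concentration required for complete inhibition of growth.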

What was measured:
Experiment in all cases: NCI tumour cell line growth inhibition, 48 h
CCRF-CEM leukemia = tested on: CCRF-CEM leukemia
EKVX NSCLC = tested on: EKVX NSCLC
HCC-2998 colon = tested on: HCC-2998 colon
HL-60(TB) leukemia = tested on: HL-60(TB) leukemia
HOP-92 NSCLC = tested on: HOP-92 NSCLC
HS 578T breast = tested on: HS 578T breast
HT29 colon = tested on: HT29 colon
PC-3 prostate = tested on: PC-3 prostate
SF-295 CNS = tested on: SF-295 CNS
UACC-62 melanoma = tested on: UACC-62 melanoma

Row | Compound | TGI (CCRF-CEM leukemia) [µM] | TGI (EKVX NSCLC) [µM] | TGI (HCC-2998 colon) [µM] | TGI (HL-60(TB) leukemia) [µM] | TGI (HOP-92 NSCLC) [µM] | TGI (HS 578T breast) [µM] | TGI (HT29 colon) [µM] | TGI (PC-3 prostate) [µM] | TGI (SF-295 CNS) [µM] | TGI (UACC-62 melanoma) [µM]
1 | Cc1nccn1S(=O)(=O)c1ccc(Cl)cc1 | > 100 | > 100 | 88 | 60.5 | 64.3 | > 100 | > 100 | > 100 | > 100 | > 100
2 | COC(=O)/C=C\C(C#N)(C#N)N=Cc1ccc(Br)cc1 | 5.91 | 29.6 | 32.1 | 1.27 | 6.34 | 49.7 | 6.22 | 32.4 | 34.7 | 16.5
3 | C=C1CC(O)C2C(=C)C(=O)OC2C2C(C)C(=O)CC12 (centres undefined) | 41.4 | 35.6 | 34.4 | 9.43 | 33.8 | 63.2 | 42.8 | > 100 | 68.9 | 29.1
4 | CCOP(=O)(Cc1nc(C#N)c(N)o1)OCC | > 100 | > 100 | > 100 | > 100 | > 100 | > 100 | > 100 | > 100 | > 100 | > 100
5 | COc1cccc(N(CN2C(=O)CCC2OC)C(C)=O)c1 (centres undefined) | > 100 | – | > 100 | 49.2 | > 100 | > 100 | > 100 | > 100 | > 100 | > 100
6 | O=C(Cn1c(=O)oc2ccc(C(=O)c3cccc(Cl)c3)cc21)c1ccccc1 | > 100 | > 100 | 78.6 | > 100 | > 100 | > 100 | > 100 | > 100 | > 100 | > 100
7 | COc1ccc(/C=C(/c2ccc(OC)cc2)c2c(Cl)cc(Cl)c(/C(=C\c3ccc(OC)cc3)c3ccc(OC)cc3)c2N=Nc2ccccc2)cc1 | > 100 | > 100 | > 100 | > 100 | > 100 | > 100 | > 100 | > 100 | > 100 | > 100
8 | Clc1ncnc2c1nc(C#Cc1ccccc1)n2C1CCCCO1 (centres undefined) | > 100 | 3.67 | 3.54 | 6.94 | 3.83 | 42.6 | 3.98 | 11.8 | 16.5 | 5.84
9 | O=C(CN1CCN(c2ccccn2)CC1)N1CCCn2c1nc1ccccc1c2=O | > 100 | > 100 | > 100 | > 100 | > 100 | > 100 | > 100 | > 100 | > 100 | > 100
10 | CC1CN=C(c2ccc(CN3CCC(CCCC4CCN(Cc5ccc(C6=NCC(C)N6)cc5)CC4)CC3)cc2)N1 (centres undefined) | 67.4 | 92 | 28.7 | > 100 | > 100 | > 100 | > 100 | > 100 | > 100 | > 100
11 | Cc1ccc(C)c2c1n1c(=O)n(C)c(=O)n21 | > 100 | > 100 | > 100 | > 100 | > 100 | > 100 | > 100 | > 100 | > 100 | > 100
12 | CC(C)(C)OC(=O)NNCC(O)COc1ccccc1 (centres undefined) | > 100 | > 100 | > 100 | > 100 | > 100 | > 100 | > 100 | > 100 | > 100 | > 100
13 | NNS(=O)(=O)c1ccc(/C=C2\NC(=O)NC2=O)cc1 | > 100 | > 100 | > 100 | > 100 | > 100 | > 100 | > 100 | > 100 | > 100 | > 100
14 | O=C1Nc2ccccc2SC1=C(C(=O)c1ccccc1)C(=O)c1ccccc1 | 77.4 | > 100 | 63.8 | 0.82 | 99.9 | > 100 | > 100 | > 100 | 57.5 | 51.6
15 | CC1C(c2ccccc2)NC(c2ccccc2)CC1(N)C#N (centres undefined) | > 100 | > 100 | > 100 | > 100 | > 100 | > 100 | > 100 | > 100 | > 100 | > 100
16 | COc1ccc(/N=N/C(=NNC(=O)c2ccc(C)cc2)c2ccc(N(C)C)cc2)cc1 | > 100 | > 100 | 98.4 | > 67.7 | > 100 | > 100 | > 89.8 | > 100 | > 100 | > 83.1
17 | CC1=NN(c2nc(N)nc(-c3cc4ccccc4oc3=N)n2)C(C)(C)C1 | 48.6 | 32.8 | 28.8 | 46.2 | 42.7 | 48.1 | 40.2 | 33 | 32.6 | 34.1
18 | CC(C)(CO)CNc1cc(Cl)nc(N)n1 | > 100 | > 100 | > 100 | > 100 | > 100 | > 100 | > 100 | > 100 | > 100 | > 100
19 | COc1ccc(/C=C2\OC(=O)C(Cl)=C2c2ccc(OC)c(Cl)c2)cc1 | > 100 | 51.8 | > 100 | > 100 | 46.1 | 73.7 | > 100 | > 100 | 67.6 | 80
20 | Nc1ccn(CC(O)c2cc3ccccc3[nH]2)c(=O)n1 (centres undefined) | > 100 | > 100 | > 100 | > 100 | > 100 | > 100 | > 100 | > 100 | > 100 | > 100
21 | O=C1C=CC(=O)c2c(O)c(N(CCCl)CCCl)c(Cl)c(O)c21 | > 7.38 | > 10 | > 10 | > 10 | 5.78 | > 10 | > 8.53 | > 8.55 | > 10 | > 7.71
22 | O=C(O)C1CSC2(CCCN(Cc3ccccc3)C2)N1 (centres undefined) | > 79.6 | > 100 | > 100 | > 100 | > 100 | > 100 | > 100 | > 100 | > 100 | > 100
23 | CCCCCCCCCCCCCCCCCCNc1nc(=O)n(C2CC(OP(=O)(O)OCC3OC(n4cc(F)c(=O)[nH]c4=O)CC3O)C(CO)O2)cc1F (centres undefined) | 42.7 | > 100 | 52.9 | 20.3 | > 100 | > 100 | 48.4 | > 100 | 38.5 | 51.1
24 | CC(C)OP(=O)(OC(C)C)/C(C#N)=C/c1c[nH]c2ccccc12 | > 100 | > 100 | > 100 | > 100 | > 100 | > 100 | > 100 | > 100 | > 100 | > 100
25 | CCOC(=O)C1=C(C)N(Cc2ccccc2)C2(O)C(OC)CC(=O)C3C(=O)N(c4ccccc4)C(=O)C132 (centres undefined) | > 100 | 60 | 53.5 | > 100 | 44.5 | > 100 | 23.9 | 50.8 | 47.5 | 21.6
26 | Cc1ccsc1/C=N/Nc1cc(C)c2ccccc2n1 | 57.8 | 28.8 | 31.7 | 34.4 | 28.1 | 38.6 | 15 | 51.4 | 37.8 | 26.6
27 | O=c1onc(Nc2ccccc2)n1-c1ccccc1 | > 100 | > 100 | > 100 | > 100 | > 100 | > 100 | > 100 | > 100 | > 100 | > 100
28 | COc1cc(-c2nc(SC)nc3c2CCc2ccccc2-3)cc(OC)c1OC | > 100 | 92.8 | > 100 | > 100 | > 100 | > 100 | > 100 | > 100 | > 100 | > 100
